Measured values: ChEMBL document CHEMBL4261583, “Discovery of potent calpain inhibitors based on the azolo-imidazolidenone scaffold” (Eur J Med Chem, 2018)
pIC50: −log10 of the molar value. The source made the active and inactive calls. No cut-off for these calls is given here.

Key:
[1] = molecular target: T1, Calpain-1 catalytic subunit (Homo sapiens) (UniProt P07384); test: Inhibition of calpain (unknown origin) at 1 uM using Suc-LY-AMC as fluorogenic substrate after 60 mins by spectrofluorometric analysis relative to calpeptin
T1 sequence (whole entry): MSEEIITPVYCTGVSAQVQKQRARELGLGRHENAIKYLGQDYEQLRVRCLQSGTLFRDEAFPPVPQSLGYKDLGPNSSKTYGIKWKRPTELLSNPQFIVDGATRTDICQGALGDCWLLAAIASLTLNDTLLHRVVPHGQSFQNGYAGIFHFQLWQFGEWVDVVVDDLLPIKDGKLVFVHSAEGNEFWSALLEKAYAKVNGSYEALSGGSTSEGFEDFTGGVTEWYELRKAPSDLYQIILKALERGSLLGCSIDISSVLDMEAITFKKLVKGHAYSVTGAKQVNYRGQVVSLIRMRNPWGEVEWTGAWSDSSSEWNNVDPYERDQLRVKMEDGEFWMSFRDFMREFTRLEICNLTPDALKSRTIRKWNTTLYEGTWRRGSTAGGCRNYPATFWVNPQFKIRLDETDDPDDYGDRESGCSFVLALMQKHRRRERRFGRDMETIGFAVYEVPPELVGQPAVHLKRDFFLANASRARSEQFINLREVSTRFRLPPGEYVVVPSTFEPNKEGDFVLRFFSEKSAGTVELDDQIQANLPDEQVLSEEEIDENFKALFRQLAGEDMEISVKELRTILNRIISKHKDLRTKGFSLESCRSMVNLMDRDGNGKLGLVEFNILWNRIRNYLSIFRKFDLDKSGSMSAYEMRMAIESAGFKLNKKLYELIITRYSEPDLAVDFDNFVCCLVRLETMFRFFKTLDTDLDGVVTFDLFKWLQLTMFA

[2] = molecular target: T2, Calpain-1 catalytic subunit (Homo sapiens, UniProt P07384); test: Inhibition of calpain (unknown origin) using Suc-LY-AMC as fluorogenic substrate after 60 mins by spectrofluorometric analysis
T2 sequence (P07384 whole entry): T1 sequence (whole entry)

HK-2 [3] = test: Induction of apoptosis in human HK2 cells at 1 uM after 24 hrs by propidium iodide staining-based flow cytometric analysis (reference value: 3.8 +/- 1%); format: cell-based; conditions: hk-2, 24 h
HK-2 [4] = test: Cytoprotective activity against NaN3-induced apoptosis in human HK2 cells at 1 uM pre-incubated with 200 mM NaN3 for 30 mins followed by 24 hrs recovery with compound propidium iodide staining-based flow cytometric analysis (reference value: 27.3 +/- 4.9%); format: functional
HK-2 [5] = test: Cytotoxicity against human HK2 cells at 0.1 to 10 uM after 24 hrs by MTT assay; format: cell-based; conditions: hk-2, 24 h
[6] = molecular target: T1, Calpain-1 catalytic subunit (Homo sapiens); test: Uncompetitive inhibition of calpain (unknown origin) at 1 to 10 uM using Suc-LY-AMC as fluorogenic substrate after 60 mins by Lineweaver-Burk plot analysis
HK-2 [7] = test: Cytoprotective activity against NaN3-induced apoptosis in human HK2 cells at 0.1 to 10 uM pre-incubated with NaN3 for 30 mins followed by 24 hrs recovery with compound propidium iodide staining-based flow cytometric analysis; format: functional, cell-based

Row | SMILES | inhibition [1] [%] | pIC50 [2] | further results
1 | O=C1/C(=C(\NC2CCCCC2)c2cc3ccccc3[nH]2)N=CN1C1CCCCC1 | 9 | – | –
2 | O=C1/C(=C(\NCc2ccccc2)c2cc3ccccc3[nH]2)N=CN1Cc1ccccc1 | 28.2 | – | –
3 | O=C1/C(=C(\NCc2ccccc2)c2cc3cccnc3[nH]2)N=CN1Cc1ccccc1 | 11.7 | – | –
4 | COCCN/C(=C1/N=C(c2ccccc2)N(CCOC)C1=O)c1cc2ccccc2[nH]1 | 21.5 | < 6.00 | –
5 | COCCN/C(=C1/N=C(C)N(CCOC)C1=O)c1cc2ccccc2[nH]1 | 93 | 7.70 | –
6 | COCCN/C(=C1/N=CN(CCOC)C1=O)c1[nH]c2ccccc2c1Cl | 71.9 | < 6.00 | –
7 | CCCCN/C(=C1/N=CN(CCOC)C1=O)c1cc2ccccc2[nH]1 | 75.4 | 6.46 | –
8 | COCCN/C(=C1/N=CN(CCOC)C1=O)c1cc2cccnc2[nH]1 | 79.4 | 6.42 | –
9 | CCCC[C@@H](C=O)NC(=O)[C@H](CC(C)C)NC(=O)OCc1ccccc1 [CALPEPTIN] | – | – | Activity (HK-2 [3]): 5.9%; Activity (HK-2 [4]): 9.9%
10 | COCCCN/C(=C1/N=CN(CCOC)C1=O)c1cc2ccccc2[nH]1 | 71.8 | 5.99 | –
11 | COCCN1C=N/C(=C(/NCCN(C)C)c2cc3ccccc3[nH]2)C1=O | 64.6 | < 6.00 | –
12 | COCCN/C(=C1/N=CN(CCOC)C1=O)c1[nH]c2ccccc2c1I | 76.8 | 5.97 | –
13 | CCCCN/C(=C1/N=CN(CCCC)C1=O)c1cc2ccccc2[nH]1 | 14 | – | –
14 | COCCN/C(=C1/N=CN(CCOC)C1=O)c1[nH]c2ccccc2c1Br | 62.9 | < 6.00 | –
15 | O=C1/C(=C(\NC2CCCCC2)c2cc3cccnc3[nH]2)N=CN1C1CCCCC1 | 4.5 | – | –
16 | CC(C)N/C(=C1/N=CN(C(C)C)C1=O)c1cc2ccccc2[nH]1 | 57.8 | < 6.00 | –
17 | COCCN/C(=C1/N=CN(CCOC)C1=O)c1cc2ccccc2[nH]1 | 73.7 | 6.34 | Activity (HK-2 [5]): Non-Toxic; inhibition [6]: Active; Activity (HK-2 [7]): Active
18 | CC(C)N/C(=C1/N=CN(C(C)C)C1=O)c1cc2cccnc2[nH]1 | 37.2 | – | –
